Where a SMILES comes first, the peptide text is derived from it. Where no end group is shown, it is not given here. [ ]: non-standard residue; d: D form.
Key:
[1] = system: T lymphocytes isolated from spleens of male CBA/J or NZB mice; assay: T lymphocyte proliferation, 3H-thymidine incorporation; format: cell-based; parameters: key: A = Active; IA = Inactive; conditions: 48 hours culture, 200 μl
Protocol: The activity of the compounds of Example 2 and Example 4 was determined according to the following procedure:
T lymphocytes are isolated from spleens of male CBA/J or NZB mice. Cell homogenates are prepared in Hank's balanced salt solution (HBSS). After removal of larger particles and repeated washing of the cells in HBSS they are suspended in minimum essential medium (MEM) and passed through a glass wool column to remove macrophages. The cells are then incubated on a nylon wool column at 37° C., 95% air, 5% CO2, for 45 minutes. The non-adherant T lymphocytes are then eluted from the column, counted, and adjusted to 20×10^6 cells/ml. 50 μl of cells are cultured (37° C., 95% air, 5% CO2) with compound, for 48 hours before the addition of 0.5 μCi. of 3H-thymidine for the last 16 hours of culture. The total volume of the culture system is 200 μl. The cells are then harvested on a multiple automatic sample harvester (Mash II), the glass fiber filter disks placed in 10 ml. of xylene base scintillation fluid, and counted for 1 minute in a liquid scintillation counter. Results are reported as CPM±SE. Comparisons are made between counts obtained with control cultures and cultures containing compound and a determination made as to whether the compounds are active at the dosage tested.

[2] = system: autologous rosette-forming cells in the spleens of athymic mice; conditions: in vivo; cited from earlier work

CC(=O)O.CC(=O)O.CC(=O)O.CC(C)[C@H](NC(=O)[C@H](CC(N)=O)NC(=O)[C@H](CCCCN)NC(=O)[C@@H](N)CCCNC(=N)N)C(=O)N[C@@H](Cc1ccc(O)cc1)C(N)=O [Arg--Lys--Asn--Val--Tyr--NH2, L-Arginyl-L-lysyl-L-asparaginyl-L-valyl-L-tyrosyl-amide triacetate salt] (H-RKNVY-NH2)
Activity (T-cell proliferation, 3H-thymidine CPM vs control cultures) ([1]; 0.0015 μg/culture): A | Activity (T-cell proliferation, 3H-thymidine CPM vs control cultures) ([1]; 0.006 μg/culture): A | Activity (T-cell proliferation, 3H-thymidine CPM vs control cultures) ([1]; 0.025 μg/culture): A | Activity (T-cell proliferation, 3H-thymidine CPM vs control cultures) ([1]; 0.05 μg/culture): A | Activity (T-cell proliferation, 3H-thymidine CPM vs control cultures) ([1]; 0.1 μg/culture): A | Activity (T-cell proliferation, 3H-thymidine CPM vs control cultures) ([1]; 0.2 μg/culture): IA

CC(=O)O.CC(=O)O.CC(=O)O.CC(C)[C@H](NC(=O)[C@H](CC(N)=O)NC(=O)[C@H](CCCCN)NC(=O)[C@H](N)CCCNC(=N)N)C(=O)N[C@H](Cc1ccccc1)C(N)=O [D-Arg--Lys--Asn--Val--D-Phe--NH2, D-Arginyl-L-lysyl-L-asparaginyl-L-valyl-D-phenylalanyl amide tri acetate salt] (H-[dR]KNV[dF]-NH2)
Activity (T-cell proliferation, 3H-thymidine CPM vs control cultures) ([1]; 0.0015 μg/culture): A | Activity (T-cell proliferation, 3H-thymidine CPM vs control cultures) ([1]; 0.006 μg/culture): A | Activity (T-cell proliferation, 3H-thymidine CPM vs control cultures) ([1]; 0.025 μg/culture): A | Activity (T-cell proliferation, 3H-thymidine CPM vs control cultures) ([1]; 0.1 μg/culture): A

RKDVY [arginyl-lysyl-aspartyl-valyl-tyrosine]
Numbers of autologous rosette-forming cells in spleens of athymic mice [2]: reducing the high numbers of autologous rosette-forming cells
